Experimental data published in patent publication US20240115557A1, “INHIBITORS OF RNA-GUIDED NUCLEASES AND USES THEREOF” (The Brigham and Women's Hospital, Inc., priority 2022, published 2024).

Key:
SpCas9 = SpCas9 (Streptococcus pyogenes serotype M1, UniProt Q99ZW2); experiment: eGFP disruption assay, SpCas9, U2OS.eGFP.PEST cells; assay type: cell-based; conditions: for Normalized Z rep1 / Z score Rep1: replicate 1; for SpCas9 eGFP disruption Rep1: replicate 1, raw readout; for Normalized Z rep2 / Z socre Rep2: replicate 2; for SpCas9 eGFP disruption Rep2: replicate 2, raw readout
Sequence of SpCas9 (Q99ZW2 whole entry): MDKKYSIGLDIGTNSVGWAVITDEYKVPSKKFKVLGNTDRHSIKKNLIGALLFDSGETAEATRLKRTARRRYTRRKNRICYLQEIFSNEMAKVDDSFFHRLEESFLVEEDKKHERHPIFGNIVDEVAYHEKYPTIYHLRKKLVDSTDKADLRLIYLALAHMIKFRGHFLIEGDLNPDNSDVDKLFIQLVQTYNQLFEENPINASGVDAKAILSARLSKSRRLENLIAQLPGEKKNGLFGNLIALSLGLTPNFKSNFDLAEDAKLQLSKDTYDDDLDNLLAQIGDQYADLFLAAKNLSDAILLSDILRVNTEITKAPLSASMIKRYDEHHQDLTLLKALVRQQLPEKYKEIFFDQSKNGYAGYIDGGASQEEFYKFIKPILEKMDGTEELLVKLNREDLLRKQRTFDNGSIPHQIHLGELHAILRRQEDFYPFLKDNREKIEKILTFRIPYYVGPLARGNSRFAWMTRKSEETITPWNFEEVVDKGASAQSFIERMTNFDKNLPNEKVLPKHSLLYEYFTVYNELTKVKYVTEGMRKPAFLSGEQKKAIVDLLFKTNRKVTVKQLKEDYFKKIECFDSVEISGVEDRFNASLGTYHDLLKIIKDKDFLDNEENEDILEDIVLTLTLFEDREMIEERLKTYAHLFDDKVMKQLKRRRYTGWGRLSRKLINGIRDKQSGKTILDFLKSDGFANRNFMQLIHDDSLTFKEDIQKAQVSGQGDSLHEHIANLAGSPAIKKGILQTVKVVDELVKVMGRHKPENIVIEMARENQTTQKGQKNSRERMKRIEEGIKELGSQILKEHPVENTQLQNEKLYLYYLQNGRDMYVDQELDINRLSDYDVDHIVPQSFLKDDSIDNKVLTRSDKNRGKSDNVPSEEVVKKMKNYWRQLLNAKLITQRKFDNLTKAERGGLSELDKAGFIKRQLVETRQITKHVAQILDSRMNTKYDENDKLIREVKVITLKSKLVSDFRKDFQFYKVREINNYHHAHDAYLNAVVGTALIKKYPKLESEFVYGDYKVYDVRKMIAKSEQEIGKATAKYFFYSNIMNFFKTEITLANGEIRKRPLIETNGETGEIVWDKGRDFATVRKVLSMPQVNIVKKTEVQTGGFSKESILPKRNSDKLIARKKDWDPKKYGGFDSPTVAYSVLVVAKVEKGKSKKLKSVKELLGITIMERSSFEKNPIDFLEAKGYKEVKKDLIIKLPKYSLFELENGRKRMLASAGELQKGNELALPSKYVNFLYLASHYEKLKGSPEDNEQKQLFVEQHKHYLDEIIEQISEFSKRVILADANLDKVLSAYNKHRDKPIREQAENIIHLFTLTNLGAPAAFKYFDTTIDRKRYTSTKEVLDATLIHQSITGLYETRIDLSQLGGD
How it was run: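 U2OS.eGFP.PEST cells nucleofected with 300 ng SpCas9 plasmid plus 30 ng eGFP-targeting gRNA plasmid, or with SpCas9 RNP (10 pmol protein, 12 pmol gRNA). Cells then incubated 24 h with compound (20 μM in screening). Inhibition is read as rescue of eGFP fluorescence in paraformaldehyde-fixed, nuclear-stained cells.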

LbCas12a = experiment: eGFP disruption assay, LbCas12a RNP; assay type: cell-based; conditions: RNP delivery, U2OS.eGFP.PEST, 24 h
[1] = target: SpCas9:gRNA complex and DNA (Streptococcus pyogenes serotype M1, UniProt Q99ZW2); experiment: Fluorescence polarization SpCas9:PAM DNA interaction assay; assay type: binding
Sequence of SpCas9:gRNA complex and DNA (Q99ZW2 whole entry, one chain of several): as the sequence (Q99ZW2 whole entry) above
Description: The fluorescence Polarization-based Assay may monitor the change in the fluorescence polarization of the fluorophore-labelled PAM-rich target DNA (e.g., a 12PAM-DNA) upon binding to [Cas9:guideRNA] complex.
Fluorescence polarization is a useful technique to monitor the interaction between two molecules, including for example, Cas9-gRNA (ribonucleoprotein) complex and target DNA (e.g., 12PAM).
Fluorescence polarization may be used to measure the binding constants and kinetics of reactions that cause a change in the rotational time of the molecules. The technique is based on the change in the tumbling rate or mass after complexation. […] The degree of binding is calculated by using the difference in anisotropy of the partially bound, free and fully bound (large excess of protein) states measured by titrating the two binding partners. […]
Development of cumulative activity assay (CAA) for SpCas9. Applicants previously reported an assay that uses fluorescence polarization (FP) to monitor the binding between a fluorophore-labeled poly-PAM DNA oligonucleotide and SpCas9 charged with a non-targeting gRNA.^17 This assay permitted screening for small molecules that interfered with the early steps of the SpCas9 catalytic mechanism, namely, binding of SpCas9 and the relatively low-affinity NGG PAM DNA sequence. […]

[2] = Cas9 = lower control, Ctrl = upper control
[3] = normalized, lower control about 0, upper control about 1

Structure (SMILES) | Normalized Z rep1 (SpCas9) | Z score Rep1 (SpCas9) | SpCas9 eGFP disruption Rep1 (SpCas9) | Normalized Z rep2 (SpCas9) | Z socre Rep2 (SpCas9) | SpCas9 eGFP disruption Rep2 (SpCas9) | EC50 (SpCas9; EC50 in eGFP disruption assay, U2OS.eGFP.PEST, SpCas9 plasmid and sgRNA plasmid, 0.3 uM to 20 uM, 24 h (FIG. 44A/C)) [µM] | EC50 (SpCas9; EC50 in the eGFP disruption assay, from three independent experiments) [µM] | Potency relative to BRD0539 (SpCas9; more potent than BRD0539) [fold] | Effect on activity of LbCas12a (LbCas12a) | Inhibition of binding between SpCas9:gRNA complex and DNA [1] | SpCas9 eGFP disruption Rep1 (SpCas9; [2]) | Normalized Z rep1 (SpCas9; [3]) | SpCas9 eGFP disruption Rep2 (SpCas9; [2]) | Normalized Z rep2 (SpCas9; [3])
CN(C)S(=O)(=O)Nc1ccc(N2CCCC(CN3CCCC3)C2)c(C(=O)O)c1 (centres unmarked) [Compound F294-0983] | −0.40 | −2.90 | 57.443 | −0.35 | −3.23 | 53.339 | – | – | – | – | – | – | – | – | –
Cc1nc2ccccc2n1Cc1nnc2n1N=C(N)CS2 [Compound D727-0339] | −0.25 | −1.83 | 60.982 | −0.15 | −1.41 | 58.84 | – | – | – | – | – | – | – | – | –
Nc1c(C(=O)NCC2CCCO2)sc(=S)n1-c1ccc(Cl)cc1 (centres unmarked) [Compound F128-0076] | −0.08 | −0.57 | 65.12 | −0.12 | −1.11 | 59.748 | – | – | – | – | – | – | – | – | –
CN(C)S(=O)(=O)Nc1ccc(N2CCC(CCN3CCOCC3)CC2)c(C(=O)O)c1 [Compound F294-0900] | −0.19 | −1.40 | 62.393 | −0.24 | −2.23 | 56.357 | – | – | – | – | – | – | – | – | –
Nc1c(C(=O)N2CCCCC2)sc(=S)n1Cc1ccccc1 [Compound F128-0042] | −0.22 | −1.57 | 61.817 | −0.36 | −3.35 | 52.985 | – | – | – | – | – | – | – | – | –
Brc1ccc(OCc2nn3c(-c4ccccn4)nnc3s2)cc1 [Compound D727-0522] | −0.12 | −0.85 | 64.203 | 0.08 | 0.79 | 65.458 | – | – | – | – | – | – | – | – | –
O=C(CCS(=O)(=O)c1ccc(Cl)cc1)Nc1nc(-c2ccncc2)cs1 [BRD7586] | – | – | – | – | – | – | 5.55 | 6.2 ± 1.2 | ~2 | did not affect the activity | does not inhibit the binding | – | – | – | –
CN(C)S(=O)(=O)Nc1ccc(N2CCC(C(N)=O)(N3CCCCC3)CC2)c(C(=O)O)c1 [Compound F294-0183] | −0.33 | −2.37 | 59.182 | −0.30 | −2.83 | 54.549 | – | – | – | – | – | – | – | – | –
CC(C)NC(=O)CN1CCN(c2ccc(C(=O)O)cc2NC(=O)c2ccccc2Cl)CC1 [Compound F086-0028] | −0.55 | −3.98 | 53.848 | −0.21 | −1.95 | 57.208 | – | – | – | – | – | – | – | – | –
CCN(Cc1ccccc1)c1ccc(NS(=O)(=O)c2ccc(OC)cc2)cc1C(=O)O [Compound F294-0003] | −0.48 | −3.46 | 55.595 | −0.10 | −0.96 | 60.198 | – | – | – | – | – | – | – | – | –
COCCCNC(=O)CN1CCN(c2ccc(C(=O)O)cc2NC(=O)c2ccccc2Cl)CC1 [Compound F086-0033] | −0.26 | −1.88 | 60.787 | −0.24 | −2.23 | 56.359 | – | – | – | – | – | – | – | – | –
NC(=O)c1sc(=S)n2c1[nH]c(=O)c1ccc(Cl)cc12 [Compound F083-0067] | −0.09 | −0.66 | 64.842 | −0.23 | −2.14 | 56.626 | – | – | – | – | – | – | – | – | –
Cc1ccccc1OCc1nn2c(C(C)(C)C)nnc2s1 [Compound D727-0351] | – | 0.29 | – | – | 1.32 | – | – | – | – | – | – | 67.967 | 0.04 | 67.06 | 0.14
CS(=O)(=O)Nc1cnc(N2CCC(C(N)=O)(N3CCCCC3)CC2)c(C(=O)O)c1 [Compound F293-0183] | −0.19 | −1.40 | 62.398 | −0.33 | −3.08 | 53.8 | – | – | – | – | – | – | – | – | –
CCCN1CCN(c2ccc(C(=O)O)cc2NC(=O)c2ccccc2Cl)CC1 [Compound F086-0004] | −0.17 | −1.20 | 63.051 | −0.29 | −2.70 | 54.937 | – | – | – | – | – | – | – | – | –
Nc1c(C(=O)N2CCCC2)sc(=S)n1Cc1ccccc1 [Compound F128-0041] | −0.05 | −0.34 | 65.885 | −0.15 | −1.37 | 58.95 | – | – | – | – | – | – | – | – | –
CS(=O)(=O)Nc1cnc(N2CCC(CCN3CCOCC3)CC2)c(C(=O)O)c1 [Compound F293-0898] | −0.44 | −3.21 | 56.403 | −0.11 | −1.00 | 60.078 | – | – | – | – | – | – | – | – | –
c1ccc(Cc2nn3c(-c4cccnc4)nnc3s2)cc1 [Compound D727-0066] | −0.11 | −0.78 | 64.43 | −0.15 | −1.42 | 58.807 | – | – | – | – | – | – | – | – | –
CN(C)S(=O)(=O)Nc1cnc(N2CCC(CCN3CCCCC3)CC2)c(C(=O)O)c1 [Compound F293-0962] | −0.18 | −1.30 | 62.732 | −0.33 | −3.10 | 53.726 | – | – | – | – | – | – | – | – | –
O=C(O)c1ccc(N2CCN(c3ccccn3)CC2)c(NC(=O)c2ccc(Br)cc2)c1 [Compound F086-0619] | −0.11 | −0.82 | 64.289 | −0.20 | −1.83 | 57.556 | – | – | – | – | – | – | – | – | –
NC(=O)c1c(NC(=O)COCc2cc(-c3ccc4c(c3)OCO4)on2)sc2c1CCCC2 [Compound E613-0091] | −0.19 | −1.37 | 62.484 | −0.32 | −2.94 | 54.219 | – | – | – | – | – | – | – | – | –
Cc1ccccc1OCc1nn2c(C(C)C)nnc2s1 [Compound D727-0350] | −0.47 | −3.41 | 55.746 | −0.04 | −0.36 | 61.985 | – | – | – | – | – | – | – | – | –
O=C(O)c1cc(NS(=O)(=O)c2cc(F)ccc2F)cnc1N1CCC(N2CCCCC2)CC1 [Compound F293-0616] | −0.36 | −2.62 | 58.357 | −0.03 | −0.30 | 62.171 | – | – | – | – | – | – | – | – | –
NS(=O)(=O)c1ccc(CCNC(=O)C2=Cc3sc4c(c3CS2)CCCC4)cc1 [Compound E722-2588] | −0.16 | −1.14 | 63.246 | 0.13 | 1.22 | 66.773 | – | – | – | – | – | – | – | – | –
Fc1ccc(OCc2nn3c(-c4ccccn4)nnc3s2)cc1 [Compound D727-0525] | −0.49 | −3.56 | 55.263 | −0.39 | −3.59 | 52.257 | – | – | – | – | – | – | – | – | –
